Assay [1] has as its system H292 cells. The assay is described as follows: Inhibition of proliferation of human lung cancer cells H292 (CellTiter-Meiluncell Luminescent Cell Viability Assay, 96 h). It is filed as cell-based. How it is done: (§1) The tumor cells used herein were cultured in a cell culture medium listed in table 2 at 37 °C in an incubator with 5% CO2. Prior to experimentation, all cell lines used were correctly identified by STR profiling, and tested negative for Mycoplasma contamination using a Mycoplasma detection kit through routine screenings.
(§2) The IC50 values of the compounds of the present disclosure (including the compounds in Table 1, and Examples 1-498) were determined using the CellTiter-Meiluncell Luminescent Cell Viability Assay Kit from Dalian Meilun Biotech Co., Ltd. The detailed procedure is as follows: Tumor cells were seeded in 96-well cell culture plates at the densities specified in Table 3. On the following day, the test compounds of the present disclosure were subjected to serial dilution. […] Subsequently, 0.5 μL of the test compound dilution was transferred into the 96-well plate containing the cells, with each well containing 100 μL of cell culture medium. […]
(§3) 0.5 μL of the aforementioned diluted compound of the present disclosure (including the compounds in Table 1, and Examples 1-498) was added to the seeded cells in 100 μL of medium, yielding a final test compound concentration of 10 nM. […] The growth inhibition curves for the compounds of the present disclosure were plotted using Prism GraphPad software, and the IC50 values were calculated therefrom.

The test system of assay [2] is H2228 cells. Kind of assay: Inhibition of proliferation of non-small cell lung cancer cells H2228 (cell viability assay, 96 h). In kind it is cell-based, human. How it is done: as §1, §2, §3
In assay [3] the test system is MDA-MB-231 cells. Kind of assay: Inhibition of proliferation of breast cancer cells MDA-MB-231 (cell viability assay, 96 h). In kind it is cell-based, human. Here is the method:
as §1, §2, §3

Assay [4] concerns MM.1S cells. The assay is described as follows: Inhibition of proliferation of multiple myeloma cells MM.1S (cell viability assay, 96 h). It is filed as cell-based, human. The settings on record: read-out: inhibitory activity (IC50) against tumor cells proliferation, MM.1S.
Assay [5] has as its system MGC803 cells. Kind of assay: Inhibition of proliferation of gastric cancer cells MGC803 (cell viability assay, 96 h). In kind it is cell-based, human. The settings on record: read-out: inhibitory activity (IC50) against tumor cells proliferation, MGC803. Here is the method:
as §1
The IC50 values of the compounds of the present disclosure (including the compounds in Table 1, and Examples 1-498) were determined using the CellTiter-Meiluncell Luminescent Cell Viability Assay Kit from Dalian Meilun Biotech Co., Ltd. The detailed procedure is as follows: Tumor cells were seeded in 96-well cell culture plates at the densities specified in Table 3. On the following day, the test compounds of the present disclosure were subjected to serial dilution. […] Subsequently, 0.5 μL of the test compound dilution was transferred into the 96-well plate containing the cells, with each well containing 100 μL of cell culture medium. […] Into the 96-well plate, the diluted test compounds and corresponding detection reagents were added, resulting in final test compound concentrations of 500 nM and 10 nM, respectively. The experimental procedure is described below using the diluted 2 μM test compound as an example.
0.5 μL of the aforementioned diluted compound of the present disclosure (including the compounds in Table 1, and Examples 1-498) was added to the seeded cells in 100 μL of medium, yielding a final test compound concentration of 10 nM. After the cells were treated with the compounds of the present disclosure for a specified period, the cell viability assay reagent was added to the culture medium according to the kit's instructions to determine cell viability. […] All controls were treated using the same procedure as the compounds of the present disclosure. The growth inhibition curves for the compounds of the present disclosure were plotted using Prism GraphPad software, and the IC50 values were calculated therefrom.

The test system of assay [6] is Jurkat cells. The assay is described as follows: Inhibition of proliferation of T lymphocytic leukemia cells Jurkat (cell viability assay, 96 h). It is filed as cell-based, human. As to conditions: read-out: inhibitory activity (IC50) against tumor cells proliferation, Jurkat.
Assay [7] has as its target T1, WEE1 (Homo sapiens, UniProt P30291+Q96SW2).
T1 construct: The supernatant was aspirated as the extracted total cell protein; endogenous in cells; host or cells: human peripheral blood mononuclear cells (hPBMCs)
Kind of assay: Western blot degradation of WEE1 in hPBMCs (24 h). In kind it is cell-based. The settings on record: compounds at 50 nM and 500 nM. An outline of the steps: (§4)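 hPBMCs (1×10^6 cells/mL) exposed to compound at 50 nM and 500 nM for 24 h, DMSO as reference. Lysates run on SDS-PAGE and immunoblotted. Band grayscale normalized to internal control gives % protein remaining; DC50 from fitted concentration-response of band intensity versus DMSO.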

Assay [8] addresses T2, IKZF1 (Homo sapiens, UniProt Q13422+Q96SW2).
T2 construct: The supernatant was aspirated as the extracted total cell protein; endogenous in cells; host or cells: human peripheral blood mononuclear cells (hPBMCs)
The assay is described as follows: Western blot degradation of IKZF1 in hPBMCs (24 h). In kind it is cell-based. As to conditions: compounds at 50 nM and 500 nM. An outline of the steps: as §4
Background: A western blot detects proteins with antibodies after separation by electrophoresis.

Assay [9] addresses T3, IKZF2 (Homo sapiens, UniProt Q96SW2+Q9UKS7).
T3 construct: The supernatant was aspirated as the extracted total cell protein; endogenous in cells; host or cells: human peripheral blood mononuclear cells (hPBMCs)
The assay is described as follows: Western blot degradation of IKZF2 in hPBMCs (24 h). In kind it is cell-based. As to conditions: compounds at 50 nM and 500 nM. Put shortly: as §4

The target of assay [10] is T4, IKZF3 (Homo sapiens, UniProt Q96SW2+Q9UKT9).
T4 construct: The supernatant was aspirated as the extracted total cell protein; endogenous in cells; host or cells: human peripheral blood mononuclear cells (hPBMCs)
T4 sequence (Q9UKT9 whole entry): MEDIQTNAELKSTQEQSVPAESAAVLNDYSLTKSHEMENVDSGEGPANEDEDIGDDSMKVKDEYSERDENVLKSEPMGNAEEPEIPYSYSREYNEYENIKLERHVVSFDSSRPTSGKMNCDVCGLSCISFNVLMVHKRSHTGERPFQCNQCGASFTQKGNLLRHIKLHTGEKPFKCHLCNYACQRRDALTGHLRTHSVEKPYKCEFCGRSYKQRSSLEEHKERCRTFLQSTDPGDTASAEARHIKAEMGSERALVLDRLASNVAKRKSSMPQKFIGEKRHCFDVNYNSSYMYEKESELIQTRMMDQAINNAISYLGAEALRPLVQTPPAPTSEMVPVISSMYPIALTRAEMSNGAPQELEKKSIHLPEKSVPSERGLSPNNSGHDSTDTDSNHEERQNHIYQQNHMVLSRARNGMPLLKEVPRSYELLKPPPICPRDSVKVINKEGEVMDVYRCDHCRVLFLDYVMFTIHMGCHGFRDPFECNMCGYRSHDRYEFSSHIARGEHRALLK
T4 sequence (Q96SW2 whole entry): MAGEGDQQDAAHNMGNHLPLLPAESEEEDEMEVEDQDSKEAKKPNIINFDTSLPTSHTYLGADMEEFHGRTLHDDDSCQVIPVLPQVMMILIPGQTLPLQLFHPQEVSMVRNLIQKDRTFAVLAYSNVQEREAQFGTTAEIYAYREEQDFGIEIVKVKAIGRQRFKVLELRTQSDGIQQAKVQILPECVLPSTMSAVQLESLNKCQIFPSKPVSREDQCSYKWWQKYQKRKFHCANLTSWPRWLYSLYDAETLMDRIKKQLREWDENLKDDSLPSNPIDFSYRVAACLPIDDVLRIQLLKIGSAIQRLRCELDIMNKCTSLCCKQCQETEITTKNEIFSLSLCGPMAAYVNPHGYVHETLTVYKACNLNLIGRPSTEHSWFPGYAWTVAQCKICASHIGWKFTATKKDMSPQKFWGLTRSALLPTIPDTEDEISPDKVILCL
T4 sequence (Q16531 whole entry partner): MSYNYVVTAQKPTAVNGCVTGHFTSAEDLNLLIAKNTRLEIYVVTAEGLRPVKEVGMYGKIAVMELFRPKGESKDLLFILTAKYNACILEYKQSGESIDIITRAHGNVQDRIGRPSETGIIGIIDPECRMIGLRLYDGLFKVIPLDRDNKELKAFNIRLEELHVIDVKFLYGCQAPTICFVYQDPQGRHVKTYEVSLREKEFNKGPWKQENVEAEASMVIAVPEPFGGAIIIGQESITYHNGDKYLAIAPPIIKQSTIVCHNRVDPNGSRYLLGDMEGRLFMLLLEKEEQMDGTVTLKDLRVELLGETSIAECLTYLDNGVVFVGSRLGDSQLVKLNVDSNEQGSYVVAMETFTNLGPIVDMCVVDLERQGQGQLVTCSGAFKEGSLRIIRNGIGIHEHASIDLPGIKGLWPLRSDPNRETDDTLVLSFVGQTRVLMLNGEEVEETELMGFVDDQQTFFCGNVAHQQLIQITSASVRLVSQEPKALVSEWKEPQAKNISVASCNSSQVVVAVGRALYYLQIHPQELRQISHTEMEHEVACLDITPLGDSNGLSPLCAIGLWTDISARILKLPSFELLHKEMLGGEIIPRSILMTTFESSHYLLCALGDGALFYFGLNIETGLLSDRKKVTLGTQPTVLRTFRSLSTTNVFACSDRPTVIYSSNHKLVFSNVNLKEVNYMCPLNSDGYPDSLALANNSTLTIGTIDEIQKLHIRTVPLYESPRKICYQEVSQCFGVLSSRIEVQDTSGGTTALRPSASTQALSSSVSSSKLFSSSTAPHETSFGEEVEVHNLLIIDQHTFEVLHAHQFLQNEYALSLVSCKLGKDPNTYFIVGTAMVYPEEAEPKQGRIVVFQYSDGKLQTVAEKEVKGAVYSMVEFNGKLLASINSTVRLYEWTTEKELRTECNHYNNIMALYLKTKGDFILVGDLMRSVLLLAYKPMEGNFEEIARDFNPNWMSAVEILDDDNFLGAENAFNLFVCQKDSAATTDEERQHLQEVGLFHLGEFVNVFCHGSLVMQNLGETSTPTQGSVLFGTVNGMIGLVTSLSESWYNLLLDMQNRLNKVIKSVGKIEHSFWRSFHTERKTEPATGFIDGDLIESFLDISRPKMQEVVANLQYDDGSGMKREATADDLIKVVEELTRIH
The assay is described as follows: Western blot degradation of IKZF3 in hPBMCs (24 h). It is filed as cell-based. The settings on record: compounds at 50 nM and 500 nM. Put shortly:
as §4

In assay [11] the target is T5, CK1α (Homo sapiens, UniProt P48729+Q96SW2).
T5 construct: The supernatant was aspirated as the extracted total cell protein; endogenous in cells; host or cells: human peripheral blood mononuclear cells (hPBMCs)
T5 sequence (P48729 whole entry): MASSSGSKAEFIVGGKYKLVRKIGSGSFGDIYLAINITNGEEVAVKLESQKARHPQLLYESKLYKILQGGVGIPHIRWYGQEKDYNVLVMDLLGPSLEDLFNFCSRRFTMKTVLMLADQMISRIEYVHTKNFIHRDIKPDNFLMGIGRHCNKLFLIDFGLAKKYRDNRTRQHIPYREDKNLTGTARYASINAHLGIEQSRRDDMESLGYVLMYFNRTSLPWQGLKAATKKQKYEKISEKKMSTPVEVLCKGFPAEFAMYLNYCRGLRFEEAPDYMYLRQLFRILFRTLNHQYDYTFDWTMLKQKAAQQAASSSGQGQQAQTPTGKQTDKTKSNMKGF
T5 sequence (Q96SW2 whole entry): as the sequence (Q96SW2 whole entry) above
T5 sequence (Q16531 whole entry partner): as the sequence (Q16531 whole entry partner) above
The assay is described as follows: Western blot degradation of CK1α in hPBMCs (24 h). It is filed as cell-based. As to conditions: compounds at 50 nM and 500 nM. Put shortly: as §4

In assay [12] the target is T6, GSPT1 (Homo sapiens, UniProt P15170+Q96SW2).
T6 construct: The supernatant was aspirated as the extracted total cell protein; endogenous in cells; host or cells: human peripheral blood mononuclear cells (hPBMCs)
T6 sequence (P15170 whole entry): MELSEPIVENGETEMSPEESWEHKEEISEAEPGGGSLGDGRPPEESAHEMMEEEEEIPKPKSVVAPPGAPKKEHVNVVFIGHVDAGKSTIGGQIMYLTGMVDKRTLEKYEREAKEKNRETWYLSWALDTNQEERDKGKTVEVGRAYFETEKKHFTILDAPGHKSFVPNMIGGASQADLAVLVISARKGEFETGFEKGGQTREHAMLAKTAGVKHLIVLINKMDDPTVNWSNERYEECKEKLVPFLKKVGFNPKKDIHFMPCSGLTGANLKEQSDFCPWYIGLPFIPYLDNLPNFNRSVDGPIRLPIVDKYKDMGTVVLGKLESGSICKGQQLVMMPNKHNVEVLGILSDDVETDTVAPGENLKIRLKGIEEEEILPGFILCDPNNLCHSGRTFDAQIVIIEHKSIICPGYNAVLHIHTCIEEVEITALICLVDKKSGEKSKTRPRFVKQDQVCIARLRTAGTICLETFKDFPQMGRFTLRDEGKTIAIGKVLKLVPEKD
T6 sequence (Q96SW2 whole entry): as the sequence (Q96SW2 whole entry) above
T6 sequence (Q16531 whole entry partner): as the sequence (Q16531 whole entry partner) above
The assay is described as follows: Western blot degradation of GSPT1 in hPBMCs (24 h). In kind it is cell-based. As to conditions: compounds at 50 nM and 500 nM. Put shortly:
as §4

SMILES strings stand for the structures.

T1 sequence (P30291 whole entry): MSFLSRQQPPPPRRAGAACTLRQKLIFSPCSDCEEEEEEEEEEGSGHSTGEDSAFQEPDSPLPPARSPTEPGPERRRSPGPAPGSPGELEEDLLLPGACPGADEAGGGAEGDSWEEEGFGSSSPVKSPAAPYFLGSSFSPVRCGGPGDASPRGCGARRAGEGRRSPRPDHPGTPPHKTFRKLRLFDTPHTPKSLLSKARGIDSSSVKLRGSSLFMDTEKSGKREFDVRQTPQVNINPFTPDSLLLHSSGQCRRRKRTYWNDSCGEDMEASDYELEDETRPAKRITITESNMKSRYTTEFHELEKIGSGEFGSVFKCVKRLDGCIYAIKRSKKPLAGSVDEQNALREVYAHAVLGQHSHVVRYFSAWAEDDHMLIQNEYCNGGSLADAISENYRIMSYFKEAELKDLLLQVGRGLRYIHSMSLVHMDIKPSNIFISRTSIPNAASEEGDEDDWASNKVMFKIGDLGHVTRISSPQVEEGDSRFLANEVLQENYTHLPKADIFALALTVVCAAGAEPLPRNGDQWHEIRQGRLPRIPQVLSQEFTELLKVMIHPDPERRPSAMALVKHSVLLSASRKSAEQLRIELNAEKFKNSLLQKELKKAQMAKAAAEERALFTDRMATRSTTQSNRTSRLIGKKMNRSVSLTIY
T1 sequence (Q96SW2 whole entry): as the sequence (Q96SW2 whole entry) above
T1 sequence (Q16531 whole entry partner): as the sequence (Q16531 whole entry partner) above
T2 sequence (Q13422 whole entry): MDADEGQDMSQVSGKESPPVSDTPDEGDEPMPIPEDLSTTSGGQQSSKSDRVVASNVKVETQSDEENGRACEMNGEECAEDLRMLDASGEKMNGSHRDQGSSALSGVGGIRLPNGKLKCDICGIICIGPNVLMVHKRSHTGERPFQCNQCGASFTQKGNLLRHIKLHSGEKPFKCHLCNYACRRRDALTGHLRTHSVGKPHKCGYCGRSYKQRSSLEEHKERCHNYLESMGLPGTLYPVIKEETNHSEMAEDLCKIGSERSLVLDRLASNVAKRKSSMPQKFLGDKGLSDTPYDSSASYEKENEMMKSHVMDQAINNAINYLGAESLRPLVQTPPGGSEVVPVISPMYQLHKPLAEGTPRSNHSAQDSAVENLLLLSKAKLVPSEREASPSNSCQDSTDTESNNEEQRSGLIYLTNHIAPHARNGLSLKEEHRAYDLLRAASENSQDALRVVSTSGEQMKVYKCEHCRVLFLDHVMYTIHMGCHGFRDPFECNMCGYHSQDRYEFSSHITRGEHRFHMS
T2 sequence (Q96SW2 whole entry): as the sequence (Q96SW2 whole entry) above
T2 sequence (Q16531 whole entry partner): as the sequence (Q16531 whole entry partner) above

Turning to `Nc1cccc2c1CN(C1CCC(=O)NC1=O)C2=O` (stereo not drawn) [lenalidomide, reference compound], the “Inhibition Rate at 10 nM (%)” value in assay [1] (H292, 10 nM) was “b1 (0 < b1 <1%)”; in assay [2] (H2228, 10 nM), “d5 (20% ≤ d5 <25%)”; in assay [3] (MDA-MB-231, 10 nM) it was “f4 (15% ≤ f4 <18%)”. For the same compound, the “Inhibition Rate at 500 nM (%)” value in [1] (H292, 500 nM) is “b3 (5% ≤ b3 <10%)”; in [2] (H2228, 500 nM), “d4 (15% ≤ d4 <20%)”; in [3] (MDA-MB-231, 500 nM), “f3 (10% ≤ f3 < 15%)”.

Turning to `Cc1ccc(C2=CCN(Cc3ccc4c(c3)CN(N3CCC(=O)NC3=O)C4=O)CC2)s1` [GT-04869, 1-(5-((4-(5-methylthiophen-2-yl)-3,6-dihydropyridin-1(2H)-yl)methyl)-1-oxoisoindolin-2-yl)dihydropyrimidine-2,4(1H,3H)-dione], the results for the IC50 in assay [4], in assay [5] and in assay [6] were 50 to 100 nM, 300 to 500 nM and 300 to 500 nM, respectively. Also, the “WEE1 substrate protein remaining %” value in assay [7] is recorded as “A (0% ≤ substrate protein remaining % ≤80%)”. For the same compound, the “IKZF1 substrate protein remaining %” value in assay [8] is “A (0% ≤ substrate protein remaining % ≤80%)”. The “IKZF2 substrate protein remaining %” value in assay [9] is “A (0% ≤ substrate protein remaining % ≤80%)”. Besides, in assay [10], the “IKZF3 substrate protein remaining %” value was “A (0% ≤ substrate protein remaining % ≤80%)”. For the same compound, the “CK1α substrate protein remaining %” value in [11] is “B (80%< substrate protein remaining % ≤100%)”. The “GSPT1 substrate protein remaining %” value in assay [12] is given as “A (0% ≤ substrate protein remaining % ≤80%)”.

In the case of `Cc1ccsc1C1=CCN(Cc2ccc3c(c2)CN(N2CCC(=O)NC2=O)C3=O)CC1` [GT-04870, 1-(5-((4-(3-methylthiophen-2-yl)-3,6-dihydropyridin-1(2H)-yl)methyl)-1-oxoisoindolin-2-yl)dihydropyrimidine-2,4(1H,3H)-dione], the IC50 in assay [4] lay within 50 to 100 nM; in assay [5] it was 100 to 300 nM; in [6], 100 to 300 nM. Also, the “WEE1 substrate protein remaining %” value in [7] is “A (0% ≤ substrate protein remaining % ≤80%)”. Moreover, the “IKZF1 substrate protein remaining %” value in [8] is given as “A (0% ≤ substrate protein remaining % ≤80%)”. In addition, the “IKZF2 substrate protein remaining %” value in [9] is reported as “A (0% ≤ substrate protein remaining % ≤80%)”. The “IKZF3 substrate protein remaining %” value in assay [10] is “A (0% ≤ substrate protein remaining % ≤80%)”. Further, in assay [11], the “CK1α substrate protein remaining %” value is listed as “B (80%< substrate protein remaining % ≤100%)”. Moreover, in [12], the “GSPT1 substrate protein remaining %” value is “A (0% ≤ substrate protein remaining % ≤80%)”.

Consider `Cc1cc(C2=CCN(Cc3ccc4c(c3)CN(N3CCC(=O)NC3=O)C4=O)CC2)cs1` [GT-04873, 1-(5-((4-(5-methylthiophen-3-yl)-3,6-dihydropyridin-1(2H)-yl)methyl)-1-oxoisoindolin-2-yl)dihydropyrimidine-2,4(1H,3H)-dione], for which the IC50 in [4] was 50 to 100 nM; in assay [5], 100 to 300 nM; in assay [6] it was 100 to 300 nM. In assay [7], the “WEE1 substrate protein remaining %” value is recorded as “A (0% ≤ substrate protein remaining % ≤80%)”. Also, the “IKZF1 substrate protein remaining %” value in assay [8] is “A (0% ≤ substrate protein remaining % ≤80%)”. Further, the “IKZF2 substrate protein remaining %” value in assay [9] is “B (80%< substrate protein remaining % ≤100%)”. The “IKZF3 substrate protein remaining %” value in assay [10] was “A (0% ≤ substrate protein remaining % ≤80%)”. Further, the “CK1α substrate protein remaining %” value in assay [11] is given as “B (80%< substrate protein remaining % ≤100%)”. For the same compound, the “GSPT1 substrate protein remaining %” value in assay [12] is given as “A (0% ≤ substrate protein remaining % ≤80%)”.

For `O=C1CCN(N2Cc3cc(CN4CCC(Nc5ccccc5-c5ccc(Cl)cc5)CC4)ccc3C2=O)C(=O)N1` [GT-04943, 1-(5-((4-((4′-chloro-[1,1′-biphenyl]-2-yl)amino)piperidin-1-yl)methyl)-1-oxoisoindolin-2-yl)dihydropyrimidine-2,4(1H,3H)-dione], the IC50 in assay [4] was 10 to 50 nM; in assay [5], 100 to 300 nM; in [6], 100 to 300 nM. Besides, the “WEE1 substrate protein remaining %” value in assay [7] was “A (0% ≤ substrate protein remaining % ≤80%)”. Further, in assay [8], the “IKZF1 substrate protein remaining %” value is given as “A (0% ≤ substrate protein remaining % ≤80%)”. Further, the “IKZF2 substrate protein remaining %” value in assay [9] was “A (0% ≤ substrate protein remaining % ≤80%)”. Besides, the “IKZF3 substrate protein remaining %” value in assay [10] is “A (0% ≤ substrate protein remaining % ≤80%)”. Besides, the “CK1α substrate protein remaining %” value in [11] is “B (80%< substrate protein remaining % ≤100%)”. Also, the “GSPT1 substrate protein remaining %” value in assay [12] is on record as “A (0% ≤ substrate protein remaining % ≤80%)”.

(Values after patent US20260356819A1, “OXOISOINDOLINYL-SUBSTITUTED […] DERIVATIVE AND USE THEREOF” (GLUETACS THERAPEUTICS (SHANGHAI) CO., LTD., priority 2023, published 2026).)
